Read-outs that look alike come from different tables or passages of the source.
How the values were obtained:
[1] = Liquid state polarization and buildup of [^15N2]urea by dDNP; assay type: physicochemical
Description: The temperature in the NMR tube was continuously monitored using an NMR compatible temperature probe (Osensa, Burnaby, BC, Canada). […] Curve fitting was performed using Matlab (Mathworks, Natick, Mass., USA).

[2] = Temperature dependence of T1 of hyperpolarized [^15N2]urea in D2O; assay type: physicochemical; parameters: T1 Average ± SD: unit not given here
Description: The experiment shown in FIG. 9B clarified the importance of maximizing the T1 of [^15N2]urea for optimal storage of the polarization, in order to expand the time scale in which the hyperpolarized signal from a single dose can be observed in vivo. As for storage there are no limitation to physiological temperatures, the effect of temperature on the T1 of [^15N2]urea was measured. Given the impressive signal afforded by the dDNP process and its long lifetime, it was possible to measure the T1 of the ^15N sites of urea for a range of temperatures with a single sample that was slowly heated or cooled while the temperature was continuously monitored with an NMR compatible temperature probe (FIG. 10A, top). In order to determine the temperature dependent T1, the decay data were retrospectively binned to consecutive 10° C. segments (FIG. 10A, alternating shading indicates different 10° C. segments) and the T for each temperature segment was determined (FIG. 10B, inset).
The hyperpolarized decay acquisitions were carried out with 3-10° excitation angle and 5-20 s repetition time. There was no significant difference in the T determined with different acquisition parameters.
Individual measurements are shown. Each column represents a single hyperpolarized decay, obtained with the same flip angle and repetition time. Using an online measurement of the temperature inside the NMR tube, we could differentiate different temperature regimes within a single decay and thus assess the effect of temperature on T1. T1 values were determined by fitting the equation describing the mono-exponential decay of a hyperpolarized signal: S(t)=S0·e−t/T1·(cos θ)t/TR.
The angle of excitation was determined by calibration of the 90o excitation on a ^15N labeled standard. The error for each individual measurement represents the 95% confidence interval of the curve fit.
The temperature gradient was formed by adding a solution at a temperature different than the spectrometer temperature so that throughout the acquisition the sample slowly cooled/warmed to the spectrometer temperature. […] Variability in the determined T1 values may be due to slight variations in the effective angle of excitation and/or the amount of trace protons present in different samples; indeed when different temperature segments are compared within the same hyperpolarized decay, (i.e. for the same sample on the same day), the dependence of T1 on the temperature can be even more clearly seen. The average and standard deviation of all measurements in the same temperature regime are shown in the column on the right.

[3] = T1 of hyperpolarized ^15N sites bound to labile protons upon dissolution in H2O and D2O, 5.8 T; assay type: physicochemical
Description: Spin polarization and fast dissolution were carried out in a dDNP commercial device (HyperSense, Oxford Instruments Molecular Biotools, Oxford, UK). The sample was maintained at 1.4-1.5 K and was irradiated at 94.110 GHz. ^15N NMR spectroscopy was performed in a 5.8 T NMR spectrometer (RS2D, Mundolsheim, France), using a 10-mm broadband NMR probe. The temperature in the NMR tube was continuously monitored using an NMR compatible temperature probe (Osensa, Burnaby, BC, Canada). Spectral processing and calculation of integrated intensities was performed using MNova (Mestrelab Research, Santiago de Compostela, Spain). Liquid state polarization was determined by comparing the integrated intensity of the first hyperpolarized spectrum to the integrated intensity of a standard containing a known concentration of ^15N label, where the thermal equilibrium polarization is given as PolTE=tanh(ℏγB/2kbT) Determination of the T1 of the hyperpolarized sites was performed by curve fitting of the signal decay to the following equation: S(t)=S0·e^−t/T^1·(cos θ)^t/TR in which TR, the time between excitations, and θ, the nutation angle of excitation, are known. For measurements of T1 in whole blood, 5.5 ml of whole blood in heparinized tube was obtained from a healthy volunteer and maintained at 20° C. for 2.5 h. Ten minutes before dissolution of the hyperpolarized urea sample, the blood was loaded into a NMR tube in the spectrometer and maintained at 36° C. The hyperpolarized urea sample was dissolved into a container outside the magnet and was injected in 0.5-1.0 mL aliquots followed by ≈2 ml of air through a tube at the bottom of the sample, to ensure no sample remained in the inlet line and complete mixing of the freshly injected solution with the blood. The sample was visually inspected at the end of the experiment to confirm that the hyperpolarized solution was well mixed with the blood and that there was no separation of the blood. Curve fitting was performed using Matlab (Mathworks, Natick, Mass., USA). Statistical analysis was performed using Microsoft Excel (Microsoft, Ra'anana, Israel).

[4] = remark: listed apart in the source
Description: (§1) ^15N-NMR spectroscopy was performed in a 5.8T NMR spectrometer (RS2D, Mundolsheim, France), using a 10 mm broad-band NMR probe. The chemical shift scale of the spectra presented herein was calibrated based on a separate measurement of a [^15N2]urea standard sample (4M in H2O:D2O 80:20), carried out prior to hyperpolarized ^15N acquisitions, calibrating the [^15N2]urea signal to −306 ppm (relative to nitromethane). For enhancement factor calculation, the spectra were collected with a high flip angle of […] and a repetition time of 2 s. For T1 calculation, the spectra were acquired with a low flip angle of […] and a longer repetition time of 5-10 s.
The absolute enhancement factor was determined by comparing the maximal SNR of the magnitude signal multiplied by the linewidth at half-height obtained under hyperpolarized conditions to the intensity of the thermal equilibrium signal of the same sample (analyzed in the same way). The spectrum at thermal equilibrium was acquired with the same nutation angle under fully relaxed conditions. The same spectral acquisition parameters (spectral width, number of points, receiver gain) and processing parameters (apodization, zero-filling) were used in the analysis of both spectra and the thermal equilibrium signal was corrected for the number of scans.
in the same spectrometer used to record the hyperpolarized signal (5.8T), as described in the Methods section, and then projected to the expected enhancement factors at a common clinical scanner at 1.5T. Enhancement factors were calculated with reference to a spectrum of the same sample.

[5] = remark: listed apart in the source
Description: For this reason it was important to determine also the potential conversion to hyperpolarized [^15N]nitrite in human saliva.
To test for the presence of [^15N]nitrite in this saline-saliva sample after the hyperpolarized state had decayed, the same sample was scanned at thermal equilibrium as well. The sample was scanned for 20 h, at room temperature.
(§2) In the next step, this solution was divided into 2 samples, in the following manner: 3 mL of this solution were combined with 0.75 mL of human saliva and the combined solution was scanned for 5 days. The rest of the solution (without human saliva) was kept outside the magnet at room temperature.

[6] = remark: listed apart in the source
Description: Then, 4.59 mL saline and 0.66 mL of D2O were added to this mixture. This solution was transferred to an NMR tube and scanned for 5 days. ^15N fully-relaxed spectra were recorded in blocks of about 4 h, whereas each block consisted of 720 averages with a 30 flip angle and a repetition time of 20 s.
as §2

[7] = for T1 in the 1st min of hyperpolarization decay: 0-60 s; for T1 in the 2nd min of hyperpolarization decay: 65-120 s
Excerpt: The dissolution process is detailed in the results section. […] Unless otherwise stated, the dissolved hyperpolarized solution was directly injected to a screw cup 10 mm NMR tube in a 5.8T NMR spectrometer via a PTFE line of about 2.4 m length with 3 s of He(g) chase. This line was wrapped with a heating tape (MRC, Holon, Israel) that enabled control over the temperature of the dissolution medium arriving to the NMR tube directly or to a collection tube in the fringe field of the spectrometer. ^15N-Nuclear Magnetic Resonance (NMR) spectra were continuously recorded immediately at the start of the dissolution process. […] In the experiments in body fluids and in experiments in which the hyperpolarized solution was first cooled to temperatures below room temperature, the dissolution media was first collected in a conical tube placed in the spectrometer's fringe field, and then was injected by syringe via a PEEK line to the NMR tube that was placed in the magnet.
For heating this hyperpolarized solution prior to arrival to the NMR tube, the PTFE line leading the hyperpolarized solution out of the spin polarization device was wrapped with a heating tape connected to a temperature controller (MRC, Holon, Israel). In this way, hyperpolarized solutions at temperatures higher than 26° C. could be obtained. For cooling the hyperpolarized solution, the heating tape was not turned on and the dissolution medium was mixed with 0 to 4 mL of D2O at 2° C. in a collection tube placed in ice-water bath in the fringe field of the magnet, prior to injection.
as §1
The temperature in the NMR tube was continuously monitored using an NMR compatible temperature probe (Osensa, Burnaby, BC, Canada).
Determination of the T1 of the hyperpolarized sites was performed by curve fitting of the signal decay to the following equation: S(t)=S0·e^−t/T^1·(cos θ)^t/TR, in which TR, the time between excitations, and θ, the nutation angle of excitation, are known. Curve fitting was performed using Matlab (Mathworks, Natick, Mass., USA).

[8] = tested on: breast tumor bearing mouse; conditions: 50 mM solution injected
[9] = remark: listed apart in the source
Description: The small amounts of hyperpolarized solution were added to the blood sample at 0, 3, 6, 7.25, and 9.17 min from arrival of the solution to the collection tube.

[15NH2]C([15NH2])=O [[^15N2]urea]
polarization buildup time ([1]; R^2=0.93): 2.3 ± 1.2 h | maximum polarization ([1]; liquid state polarization after varying irradiation times, 1.4-1.5 K): 5.1±1.6% | T1 Average ± SD ([2]; 15-25° C., n = 3): 146 ± 23 | T1 Average ± SD ([2]; 25-35° C., n = 4): 191 ± 33 | T1 Average ± SD ([2]; 35-45° C., n = 6): 226 ± 38 | T1 Average ± SD ([2]; 45-55° C., n = 4): 308 ± 34 | T1 Average ± SD ([2]; 55-65° C., n = 4): 351 ± 40 | T1 Average ± SD ([2]; 65-75° C., n = 3): 382 ± 48 | T1 ([2]; #1, θ 10°, TR 5 s, 35-45° C.): 228 ± 4 | T1 ([2]; #2, θ 3°, TR 10 s, 15-25° C., ± 95% CI of fit): 155 ± 3 | T1 ([2]; #2, θ 3°, TR 10 s, 25-35° C.): 196 ± 8 | T1 ([2]; #3, θ 10°, TR 10 s, 25-35° C.): 209 ± 2 | T1 ([2]; #3, θ 10°, TR 10 s, 35-45° C.): 266 ± 4 | T1 ([2]; #3, θ 10°, TR 10 s, 45-55° C.): 355 ± 8 | T1 ([2]; #3, θ 10°, TR 10 s, 55-65° C.): 382 ± 17 | T1 ([2]; #4, θ 10°, TR 10 s, 25-35° C.): 216 ± 2 | T1 ([2]; #4, θ 10°, TR 10 s, 35-45° C.): 272 ± 3 | T1 ([2]; #4, θ 10°, TR 10 s, 45-55° C.): 340 ± 5 | T1 ([2]; #4, θ 10°, TR 10 s, 55-65° C.): 386 ± 12 | T1 ([2]; #4, θ 10°, TR 10 s, 65-75° C.): 416 ± 23 | T1 ([2]; #5, θ 10°, TR 10 s, 35-45° C.): 216 ± 5 | T1 ([2]; #5, θ 10°, TR 10 s, 45-55° C.): 273 ± 4 | T1 ([2]; #5, θ 10°, TR 10 s, 55-65° C.): 305 ± 14 | T1 ([2]; #5, θ 10°, TR 10 s, 65-75° C.): 327 ± 16 | T1 ([2]; #6, θ 10°, TR 10 s, 15-25° C.): 112 ± 6 | T1 ([2]; #6, θ 10°, TR 10 s, 25-35° C.): 143 ± 1 | T1 ([2]; #7, θ 10°, TR 15 s, 35-45° C.): 198 ± 2 | T1 ([2]; #8, θ 10°, TR 15 s, 35-45° C.): 176 ± 5 | T1 ([2]; #9, θ 5°, TR 20 s, 45-55° C.): 284 ± 6 | T1 ([2]; #9, θ 5°, TR 20 s, 55-65° C.): 332 ± 11 | T1 ([2]; #9, θ 5°, TR 20 s, 65-75° C.): 404 ± 41 | T1 ([2]; #10, θ 10°, TR 10 s, 15-25° C.): 163 ± 20 | T1 ([2]; D2O, 65-75° C. (above 65° C.)): more than 6 min | T1 ([2]; deuterated water, physiological temperatures): > 3 min | T1 in whole blood (2nd injection): 12.0 ± 0.2 s | T1 in whole blood (3rd injection): 12.9 ± 0.6 s | T1 in whole blood (37° C.): 10 s | T1 in whole human blood (first decay curve, D2O:whole blood 1:10, 95% CI): 9.8 ± 0.2 s | T1 upon dissolution in D2O ([3]; D2O, ≈37° C. (35-40° C.), 5.8 T, n=2): 200 ± 20 s | T1 upon dissolution in H2O ([3]; H2O, ≈37° C. (35-40° C.), 5.8 T, n=2): 33 ± 5 s | T1 prolongation D2O versus H2O ([3]; deuteration of labile protons): 6.1 fold | decrease in polarization during 1 min transfer and administration ([3]; entire process at physiological temperatures): ≈ 25%

O=[15N+]([O-])[O-].[Na+] [[^15N]nitrate, sodium [^15N]nitrate]
^15N polarization ([4]; corresponds to enhancement factor 5,298): 1% | enhancement factor extrapolated to clinical MRI field of 1.5T ([4]; extrapolated from 5,298 at 5.8 T): about 20,500 | maximal enhancement factor ([4]; first signal in solution, 5.8 T, 2.5 h polarization at 1.5-1.6 K): 5,298 | percent polarization of the ^15N ([4]; physiological saline, HP vs TE spectra FIG. 3C/3D, 30° nutation angle): 0.6% | conversion rate of nitrate to nitrite [5]: about 3.8 mole per day per 0.75 mL of saliva | signals in saline-saliva sample [5]: about equal signals of [^15N]nitrate and [^15N]nitrite | T1 in the 1st min of hyperpolarization decay ([5]; Saline + saliva (n = 1), 0-60 s): 116 | signals in saline solution ([6]; 22 mM with glucose 2.7 mM in saline, scanned 5 days, room temperature, FIG. 5A): Only the [^15N]nitrate signal appears in the spectrum | conversion to [^15N]nitrite in saline without saliva ([6]; additional 5 days scan started after 14 days at room temperature, FIG. 5C): no conversion to [^15N]nitrite was observed | stable in saline solution ([6]; room temperature): at least 19 days | dependence of T1 on temperature ([7]; 34-50° C.): does not change | increase of T1 in 2nd min versus 1st min ([7]; D2O): 43% | T1 in the 1st min of hyperpolarization decay ([7]; D2O (n = 4)): 81 ± 20 | T1 in the 2nd min of hyperpolarization decay ([7]; D2O (n = 4)): 116 ± 7 | T1 in the 1st min of hyperpolarization decay ([7]; H2O (n = 2)): 99 ± 3 | T1 in the 2nd min of hyperpolarization decay ([7]; H2O (n = 2)): 99 ± 5 | mouse vascular system in ^15N MR image [8]: enhanced in the MR image | tumor tissue in ^15N MR image [8]: enhanced in the MR image | T1 in the 1st min of hyperpolarization decay ([9]; Blood (n = 3), 0-60 s): 27 ± 0.4 | T1 in the 2nd min of hyperpolarization decay ([9]; Blood (n = 3), 65-120 s): 48 ± 1 | increase of T1 in 2nd min versus 1st min ([9]; blood): 78% | T1 in blood ([9]; decay 1 of consecutive injections, error = 95% CI of fit): 29 ± 2 s | T1 in blood ([9]; decay 2 of consecutive injections, error = 95% CI of fit): 30 ± 3 s | T1 ([9]; saline/whole human blood mixture (4 mL + 10 mL), 25 mM, 32-36° C., error = 95% CI of fit): 29 ± 1 s | T1 upon mixing with whole blood ([9]; three measurements in two different blood samples): 29 ± 1 s
